Experimental data: patent US8501162B2, “Compositions and methods for the skin and hair” (The Boots Company PLC, priority 2007, dated 2013)

Assay: ABEL antioxidant assay with peroxynitrite, raw materials and combinations of three raw materials in solvent
Format: biochemical
Settings: for ABEL-RAC contribution in combination: ABEL-RAC of pure ingredient x percentage of ingredient in combination
Description: The ABEL antioxidant assay is an in vitro assay for testing the antioxidant capacity of a material. It utilises a photoprotein, which emits light when challenged with various free radical species, eg peroxynitrite, hydroxyl radicals or halogenated oxidants.
If a material is challenged with one or more of these free radical species, then any antioxidant in the sample will compete with the photoprotein. The result of this competition is a reduction in the amount of light emitted and sometimes, in addition, a delay in the time at which the maximum light emitted occurs. A light response curve can be produced for each sample tested, and EC50 and ABEL-RAC values calculated. The EC50 (effective concentration) is the concentration (normalised to g/L or mg/mL) of a material that reduces the light emitted by 50%. This reduction in light is a measure of the antioxidant capacity of the test material. The reciprocal of the EC50 values multiplied by 100 is referred to as the ABEL-RAC score.
The ABEL® antioxidant assay with peroxynitrite is the assay of choice to assess total antioxidant capacity because peroxynitrite attacks almost all compounds, including hydrophobic and hydrophilic antioxidants. Pro-oxidants are also identified with the peroxynitrite assay. Other ABEL® antioxidant assays use superoxide (produced as a single bolus in high concentration as well as enzymatically), hydroxyl radical and hyperchlorous acid (the halogenated oxidant assay). Pro-oxidants are not observed with the hydroxyl radical and halogenated oxidant assays. The hydroxyl radical assay is recommended when samples are water-soluble and the halogenated assay when the samples are soluble in organic solvent. This is because solvents such as ethanol, methanol, acetone and DMSO are good quenchers of hydroxyl radicals, and therefore the organic solvents contribute to the antioxidant effect shown by the sample. Organic solvents have little effect, however, on the halogenated oxidant assay.
• 1. The antioxidant agents (referred to as raw materials (RM) hereafter) were first dissolved in an appropriate solvent as detailed in Table 1. • 2. Combinations of three raw materials were prepared for testing by combining one part each of three raw material dilutions, at the concentrations specified in Table 2. • 3. In Table 2 each combination is given a combination number and each combination number is further described as A, B or C, where the concentrations of the raw material dilutions used in B are ten times greater that A, and the concentrations used in C are ten times greater than B (one hundred times greater than A). • 4. The concentrations of raw materials provided in Table 2 are the final concentrations of those materials in the ABEL® antioxidant assay.
Raw material combinations 1, 3, 4, 8 and 9 were assayed at three additional concentrations which are dilutions of concentration A (see Table 2). The details are contained in Table 3.

Question: For `COc1cc2c(cc1O)CCC(C)(C)O2` [RM10, dimethylmethoxy chromanol], which “ABEL-RAC contribution in combination” value (Combination 1) is on record?
Answer: 35221

Question: And the “ABEL-RAC contribution in combination” value (Combination 3)?
Answer: 10031

Question: And the “ABEL-RAC contribution in combination” value (Combination 4)?
Answer: 9606

Question: And the “ABEL-RAC contribution in combination” value (Combination 8)?
Answer: 4832

Question: What about the “Effect of solvent (ethanol rather than IMS) on ABEL peroxynitrite assay result” value (diluted with IMS versus diluted with ethanol, FIG. 19) of the same compound?
Answer: does not make an appreciable difference

Question: What about the “EC50 mg/mL of pure ingredient” value (pure raw material, ABEL peroxynitrite assay) of the same compound?
Answer: 0.0018 mg/mL

Question: What about the “ABEL-RAC peroxynitrite of pure ingredient” value (pure raw material, ABEL-RAC = reciprocal of EC50 x 100) of the same compound?
Answer: 88053
